In patent US12492215B2, “Pyrrolotriazine compounds acting as MNK inhibitor” (JUMBO DRUG BANK CO., LTD., priority 2019, dated 2025):
pIC50: −log10 of the molar value. Where a name gives a salt, the structure may show the parent alone.

Assays:
MNK2 (h) protein kinase = MNK2 (h) protein kinase (Homo sapiens (Human), UniProt Q9HBH9); test: Inhibitory activity against MNK2 protein kinase (KinaseProfiler, 33P-ATP filter-binding); type: biochemical; conditions: myelin basic protein substrate, 40 min room temperature
Chain of MNK2 (h) protein kinase (Q9HBH9 whole entry): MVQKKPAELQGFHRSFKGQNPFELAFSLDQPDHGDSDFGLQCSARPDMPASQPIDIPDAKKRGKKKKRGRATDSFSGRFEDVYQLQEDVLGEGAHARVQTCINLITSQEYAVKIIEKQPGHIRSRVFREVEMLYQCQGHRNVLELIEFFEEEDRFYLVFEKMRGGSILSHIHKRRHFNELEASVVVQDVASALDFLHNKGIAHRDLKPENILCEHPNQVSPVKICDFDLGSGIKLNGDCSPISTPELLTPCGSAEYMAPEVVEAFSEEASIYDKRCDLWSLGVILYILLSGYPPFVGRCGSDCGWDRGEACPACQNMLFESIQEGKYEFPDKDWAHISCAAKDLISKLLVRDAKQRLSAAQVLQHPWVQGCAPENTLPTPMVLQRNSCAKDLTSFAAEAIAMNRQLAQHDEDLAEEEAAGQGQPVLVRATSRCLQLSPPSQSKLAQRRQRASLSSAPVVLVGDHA
Procedure: 1. In Vitro Evaluation of Inhibitory Activity of Compounds Disclosed Herein Against MNK2 Protein Kinase
Purpose of experiment: to test the inhibitory activity of the compounds against MNK2 protein kinase
Experimental materials: assay buffer: 8 mM 3-(N-morpholino)propanesulfonic acid, 0.2 mM disodium ethylenediaminetetraacetate, 0.01% polyoxyethylene lauryl ether, 5% glycerol, 0.1% β-mercaptoethanol and 1 mg of bovine serum albumin
Experimental operation: Mnk2 protein kinase inhibitory activity assays were performed using the KinaseProfiler™ service from Eurofins Pharma Discovery Services UK Limited. Serially diluted DMSO solutions containing the compounds to be tested (3-fold serial dilution, starting from 10 μM), MNK2 (h) protein kinase and 0.33 mg/mL myelin basic protein were added to a freshly prepared buffer (pH 7.0), and then stirred homogeneously. The reaction was initiated by adding a mixture of ^33P-ATP (intensity of radioactivity: 10 μCi/μL) and 10 mM magnesium acetate. After the resulting mixture was reacted at room temperature for 40 min, the reaction was terminated by adding phosphoric acid to dilute to a concentration of 0.5%. 10 μL of the reaction solution was filtered using a P30 filtermat, and then the filtermat was washed four times with 0.425% phosphoric acid for 4 min each, followed by washing once with methanol. After drying, the intensity of radioactivity was determined using the Filter-Binding method.
The protein kinase inhibitory activity of the compounds was expressed as a percentage of the residual protein kinase activity relative to the blank substrate (DMSO alone). The Prism4 software package (GraphPad) was used to calculate IC50 values and fit curves.

[1] = test system: eIF4E phosphorylation of HCT116 cell strain; test: Inhibition of eIF4E phosphorylation in HCT116 cell strain (AlphaLISA p-eIF4E Ser209); type: cell-based; conditions: Homo sapiens, HCT-116; HCT116 cells, 3 h incubation
Source text: 3. In Vitro Evaluation of Inhibitory Activity of Compounds Disclosed Herein Against eIF4E Phosphorylation Purpose of experiment: to test the inhibition (IC50) of the compounds against eIF4E phosphorylation of HCT116 cell strain. Experimental materials: HCT116 cells (ATCC), RPM11640 medium (Life technology), fetal bovine serum (Hyclone), double antibodies (penicillin, streptomycin) (Millipore), phosphate buffer (Corning), 384-well cell plate (PerkinElmer), and AlphaLISA® SureFire® Ultra™ p-eIF4E (Ser209) Assay Kit (PerkinElmer). Experimental operation: HCT116 cells were digested to make a cell suspension, which was then plated in a 96-well plate. The cell plate was then placed in an incubator for overnight incubation. Compounds were diluted to corresponding concentrations and added to the cell plate, and the resulting mixture was incubated for 3 h. The cells were subsequently lysed with a lysis buffer, and the lysate was transferred to a 384-well plate. A mixed receptor was freshly prepared according to the kit instructions and added to the 384-well plate, and the mixture was incubated at room temperature for 1 h. Then a mixed donor was freshly prepared according to the kit instructions and added to the 384-well plate, and the resulting mixture was incubated at room temperature for 1 h. The signals were read on EnVision using the standard AlphaLISA program, curves were fitted using Graphpad prism, and the IC50 values were calculated.

[2] = Pharmacokinetic evaluation in mice; type: in vivo, CD-1 mice; conditions: male, CD-1, mouse, plasma; for bioavailability: PO 2 mg/kg vs IV 0.5 mg/kg, read-out: Bioavailability F; for AUC(0-t) / half-life: PO 2 mg/kg; for AUC(0-t): read-out: Area under the plasma drug concentration-time curve AUC0-last PO; for half-life: read-out: Half-life T1/2 (PO) (converted); for Cmax: intragastric 2 mg/kg, intravenous 0.5 mg/kg (route of Cmax not given), read-out: Peak concentration Cmax; for clearance / Vd: intravenous injection 0.5 mg/kg; for clearance: read-out: Clearance CL; for Vd: read-out: Tissue distribution Vdss
Procedure: 4. Pharmacokinetic Evaluation of Compounds Disclosed Herein
Purpose of experiment: to test pharmacokinetic parameters of the compounds in CD-1 mice
Experimental materials: CD-1 mice (Male, 7-9 weeks age, Shanghai Sippe-Bk Lab Animal Co., Ltd.)
Experimental operation: pharmacokinetic characteristics of the compounds after intravenous injection and oral administration for the rodent were tested by a standard scheme, and the candidate compounds were each formulated into a clear solution or a uniform suspension in the experiments and intravenously administered and intragastrically administered once to a mouse. The vehicle for the intravenous injection and oral administration was […] hydroxypropyl-β-cyclodextrin aqueous solution or normal saline solution. […] Two mice were subjected to intravenous injection at a dose of 0.5 mg/kg, and plasma samples were collected at 0 h (before administration) and 0.083, 0.25, 0.5, 1, 2, 4, 8, 12 and 24 h (after administration); the other two mice were subjected to intragastric administration at a dose of 2 mg/kg, and plasma samples were collected at 0 h (before administration) and 0.25, 0.5, 1, 2, 4, 8, 12 and 24 h (after administration). Whole blood samples within 24 h were collected and each centrifuged at 3000 g for 10 min. The supernatant was separated to obtain plasma sample, and acetonitrile solution containing internal standard whose volume is […] that of the plasma sample was added to precipitate the protein. The mixture was vortexed at 800 rpm for 10 min, and then 1 μL of supernatant was taken for injection. Plasma concentrations were quantitatively analyzed by LC-MS/MS method, and pharmacokinetic parameters, such as peak concentration (Cmax), clearance (CL), half-life (T1/2), tissue distribution (Vdss), area under the plasma drug concentration-time curve (AUC0-last) and bioavailability (F), were calculated.

[3] = test system: CT-26 mouse colon cancer graft tumor; test: In vivo efficacy in CT-26 mouse graft tumor; design: species or system mice; conditions: QD, 21-day treatment, CT-26 graft tumor
Procedure: 5. In Vivo Efficacy Experiment of Compound Disclosed Herein for CT-26 Mouse Graft Tumor
Purpose of experiment: to determine in vivo efficacy of compound for CT-26 mouse graft tumor
Experimental materials: CT-26 cells, RMPI-1640 medium containing 10% fetal bovine serum, and mice (female, Shanghai Sippe-Bk Lab Animal Co., Ltd.)
Experimental operation: CT-26 cells were cultured in RMPI-1640 medium containing 10% fetal bovine serum in an incubator at 37° C./5% CO2. Tumor cells were subcultured, and after an appropriate concentration was reached and the tumor cells were in the logarithmic growth phase, the tumor cells were collected, counted and then resuspended in DPBS (phosphate buffered solution), and the concentration of the cell suspension was adjusted to 3×10^6/mL for inoculation.
Establishment of mouse colon cancer graft tumor: cells were collected and adjusted to a concentration of 3×10^6 cells/mL (resuspended in DPBS to obtain cell suspension), and 0.1 mL of tumor cells was injected subcutaneously at the right dorsal side of the mice under sterile conditions, and 3×10^5 cells were inoculated for each mouse. After the tumor grew to a certain size, the length (a) and the width (b) of the tumor was measured by using a digital vernier caliper, and the tumor volume (TV) was calculated, wherein the calculation formula is as follows: TV=a×b^2/2.
CT-26 tumor cell inoculation: on the day of inoculation, animals were grouped (8 animals for each) according to the body weight and subjected to drug administration separately, and the day of inoculation was considered as D0. When the tumor size reached about 60 mm^3, the animals in the antibody groups were grouped according to the tumor size and the body weight. The body weight and tumor size of the animals were measured three times a week during the experiment, while clinical symptoms of the animals were observed and recorded daily, and for each administration, reference was made to the animal body weight measured most recently. The inhibitory effect of the compound on colon cancer graft tumor in mice was determined after 21-day treatment at a dose of 30 mg/Kg QD (once daily), 90 mg/Kg QD (once daily) and 200 mg/Kg QD (once daily), and the specific information is shown in Table 5 below.
The calculation formula of T/C (%) is as follows: T/C (%)=(TRTV/CRTV)×100%. TRTV is the relative tumor volume of the treatment group, and CRTV is the relative tumor volume of the negative control group; TGI (%)^a=(1−average tumor volume at the end of administration of a treatment group/average tumor volume at the end of treatment of the vehicle control group)×100%.

MNK1 (h) protein kinase = MNK1 (h) protein kinase (Homo sapiens (Human), UniProt Q9BUB5); test: Inhibitory activity against MNK1 protein kinase (Kinase HotSpot Profiling, 33P-ATP); type: biochemical; conditions: 120 min room temperature
Chain of MNK1 (h) protein kinase (Q9BUB5 whole entry): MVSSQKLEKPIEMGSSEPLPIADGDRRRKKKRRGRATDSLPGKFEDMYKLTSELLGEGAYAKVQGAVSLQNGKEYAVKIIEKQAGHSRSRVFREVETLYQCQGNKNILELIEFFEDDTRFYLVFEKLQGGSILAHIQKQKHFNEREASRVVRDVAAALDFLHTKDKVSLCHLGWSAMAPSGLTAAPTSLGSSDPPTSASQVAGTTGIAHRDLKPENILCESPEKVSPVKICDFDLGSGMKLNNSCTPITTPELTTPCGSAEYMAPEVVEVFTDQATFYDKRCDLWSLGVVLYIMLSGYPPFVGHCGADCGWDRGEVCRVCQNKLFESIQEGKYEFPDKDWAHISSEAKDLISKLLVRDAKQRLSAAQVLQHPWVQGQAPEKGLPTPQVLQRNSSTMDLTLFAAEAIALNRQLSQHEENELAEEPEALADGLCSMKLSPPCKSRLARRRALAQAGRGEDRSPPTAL
Procedure: 2. In Vitro Evaluation of Inhibitory Activity of Compound Disclosed Herein Against MNK1 Protein Kinase
Purpose of experiment: to test the inhibitory activity of the compound against MNK1 protein kinase
Experimental materials: assay buffer: 20 mM 4-hydroxyethylpiperazine ethanesulfonic acid (pH 7.5), 10 mM magnesium chloride, 1 mM ethylene glycol-bis-(2-aminoethylether)-N,N,N′,N′-tetraacetic acid, 0.02% polyoxyethylene lauryl ether, 0.02 mg/mL bovine serum albumin, 0.1 mM sodium vanadate, 2 mM dithiothreitol, and 1% DMSO.
Experimental operation: Mnk1 protein kinase inhibitory activity assays were performed using the Kinase HotSpot Profiling service from Reaction Biology Corp. The substrate was added to a freshly prepared buffer, followed by addition of MNK1 (h). The mixture was stirred homogeneously. Serially diluted DMSO solution containing the compounds to be tested (3-fold serial dilution, starting from 3 μM) was added by using Echo550, and then ^33P-ATP (final intensity of radioactivity: 0.01 μCi/μl) was added to initiate the reaction. The mixture was pre-incubated at room temperature for 120 min. […] The concentration of the radioactive phosphorylated substrate remaining on the filter paper was measured.
The protein kinase inhibitory activity of the compound was expressed as a percentage of the residual protein kinase activity relative to the blank substrate (DMSO alone). […]

[4] = test system: expression of PD-1, LAG3 and IL-10; conditions: background statement; cited from earlier work
[5] = background statement; cited from earlier work

Compound | IC50 (MNK2 (h) protein kinase) [nM] | pIC50 [1] | also measured
Cc1cc(Nc2ncnn3cc(OCCN4CCC(F)(F)C4)c(C)c23)c(=O)n2c1C(=O)NC21CCCCC1 [Compound 11] | 28 | 7.72 | bioavailability [2]: 14.2%; AUC(0-t) [2]: 0.405 µM·h; half-life [2]: 12.1 h; Cmax [2]: 104 nM; clearance [2]: 21.8 mL/min/kg; Vd [2]: 2.53 L/kg
Cc1cc(Nc2ncnn3cc(OC[C@H](C)N4CCCC4)c(C)c23)c(=O)n2c1C(=O)NC21CCCC1 [Compound 13] | 14 | 7.98 | 
Cc1cc(Nc2ncnn3cc(OCCN4CCCC4)c(C)c23)c(=O)n2c1C(=O)NC21CCN(C)CC1 [Compound 3 (hydrochloride)] | 39 |  | 
Cc1c(OCCN2CCCC2)cn2ncnc(Nc3cc(Cl)c4n(c3=O)C3(CCCC3)NC4=O)c12 [Compound 10 (hydrochloride)] | 8 | 8.51 | 
Cc1c(OCCN2CCCC2)cn2ncnc(Nc3cc(F)c4n(c3=O)C3(CCCCC3)NC4=O)c12 [Compound 5 (hydrochloride)] | 26 | 8.02 | 
Cc1cc(Nc2ncnn3cc(OCCN4CCC(F)(F)C4)c(C)c23)c(=O)n2c1C(=O)NC21CCCC1 [Compound 12] |  | 8.07 | T/C % ([3]; 30 mg/Kg): 36.43%; TGI % ([3]; 30 mg/Kg): 63.57%; T/C % ([3]; 90 mg/Kg): 31.11%; TGI % ([3]; 90 mg/Kg): 68.89%; T/C % ([3]; 200 mg/Kg): 33.31%; TGI % ([3]; 200 mg/Kg): 68.51%
Cc1cc(Nc2ncnn3cc(OCC4CCN(C)C4)c(C)c23)c(=O)n2c1C(=O)NC21CCCCC1 (stereo not shown) [Compound 16 (hydrochloride)] | 27 | 8.55 | 
Cc1c(OCCN2CCCC2)cn2ncnc(Nc3ccc4n(c3=O)C3(CCCCC3)NC4=O)c12 [Compound 4 (hydrochloride)] | 25 | 7.85 | 
Cc1c(OCCN2CCCC2)cn2ncnc(Nc3cc(Cl)c4n(c3=O)C3(CCCCC3)NC4=O)c12 [Compound 6 (hydrochloride)] | 21 | 9.18 | 
Cc1cc(Nc2ncnn3cc(OCCN4CCCC4)c(C)c23)c(=O)n2c1C(=O)NC2(C)C [Compound 8 (hydrochloride)] | 33 | 7.62 | 
Cc1cc(Nc2ncnn3cc(OCC4CCNC4)c(C)c23)c(=O)n2c1C(=O)NC21CCCCC1 (stereo not shown) [Compound 15 (hydrochloride)] | 28 |  | 
Cc1cc(Nc2ncnn3cc(OCCN4CCCC4)c(C)c23)c(=O)n2c1C(=O)NC21CCCCC1 [Compound 1 (hydrochloride)] | 22 | 8.46 | IC50 (MNK1 (h) protein kinase): 54.6 nM; bioavailability [2]: 32.5%; AUC(0-t) [2]: 0.956 µM·h; Cmax [2]: 35.9 nM; clearance [2]: 33.3 mL/min/kg; Vd [2]: 14.1 L/kg
Cc1cc(Nc2cc(N)ncn2)c(=O)n2c1C(=O)NC21CCCCC1 [eFT508] |  |  | effect on expression of PD-1, LAG3 and IL-10 [4]: selectively inhibit the expression of PD-1, LAG3 and IL-10; safety in phase I clinical trial [5]: good safety
Cc1cc(Nc2ncnn3cc(OCCN4CCCC4)c(C)c23)c(=O)n2c1C(=O)NC21CCCC1 [Compound 7 (hydrochloride)] | 17 | 8.19 | AUC(0-t) [2]: 1.39 µM·h; half-life [2]: 3.2 h; Cmax [2]: 131 nM
Cc1cc(Nc2ncnn3cc(OCCN4CCCC4)c(C)c23)c(=O)n2c1C(=O)NC21CCC(F)(F)CC1 [Compound 9 (hydrochloride)] | 30 | 7.92 | 
Cc1cc(Nc2ncnn3cc(OCCN4CCCC4)c(C)c23)c(=O)n2c1C(=O)NC21CCNCC1 [Compound 2 (hydrochloride)] | 63 |  | 
